Laboratory results reported in patent publication US20240393319A1, “FLUORESCENT SENSORS AND METHODS OF MAKING AND USING” (Howard Hughes Medical Institute, priority 2023, published 2024).

How the values were obtained:
[1] = biological target: T1, iATPSnFR2.A95K.HaloTag-JFX650 (L1-VLVG, L2-ICV); cpSFGFP inserted in epsilon subunit of Bacillus subtilis PS3 F0-F1 ATPase; mutation A95K; SEQ ID NO: 5, without (Bacillus sp., UniProt P07678, A95K/DELINS96-108[…]/F67N/L78Y/N74K/V42K); assay: ATP/nucleotide titration, binding curve fits; conditions: stopped flow
T1 construct: polyhistidine tag (bacterial expression vector); made in house; host or cells: E. coli BL21 (DE3) pLysS
Source text: (§1) (1A) Artistic rendering of iATPSnFR2.HaloTag made with PyMol. The N-terminal fragment (residues 1-109) of the epsilon subunit of ATPase (orange, based on 2E5Y.PDB) is fused to cpSFGFP (green). The C-terminus of cpSFGFP is fused to the residual ATP-binding helix (residues 110-129) of the epsilon subunit (pink), which itself is fused to HaloTag (cyan). “Linkers” are shown as sticks in yellow. […] HaloTag fluorophore is shown as sticks in red. […] (1C-1E) Ratio of green (iATPSnFR2) to red (HaloTag-JFX650) fluorescence in fibroblasts transfected with three affinity variants of iATPSnFR2-HaloTag. […] Cells were incubated for 21 minutes in buffer containing 10 mM glucose, and then switched to buffer containing 10 mM 2-deoxyglucose. (1C) Rho° cells. (1D) Parental LMTK cell line. (1E) Parental cell line treated with both 2-deoxyglucose and oligomycin.
(§2) ATP (black), CTP (cyan), GTP (grey), TTP (purple).
(§3) Purified protein was mixed with 1.1 molar equivalents of JFX650 HaloTag Ligand and incubated at room temperature for 1 hour and then at 4° C. overnight. Excess HaloTag Ligand was removed by gel filtration on a PD-10 column (GE Life Sciences) and re-concentrated by ultrafiltration.

[2] = biological target: T2, iATPSnFR2.S29W.A95K.HaloTag-JFX650 (L1-VLVG, L2-ICV); cpSFGFP inserted in epsilon subunit of Bacillus subtilis PS3 F0-F1 ATPase; mutations A95K, S29W; SEQ ID NO: (Bacillus sp., UniProt P07678, A95K/DELINS96-108[…]/F67N/L78Y/N74K/S29W/V42K); assay: ATP/nucleotide titration, binding curve fits; conditions: stopped flow
T2 construct: polyhistidine tag (bacterial expression vector); made in house; host or cells: E. coli BL21 (DE3) pLysS
Source text: as §1, §2, §3

[3] = biological target: T3, iATPSnFR2 (L1-VLVG, L2-ICV, A95A, A119L; cpSFGFP inserted in epsilon subunit of Bacillus subtilis PS3 F0-F1 ATPase; SEQ ID NO: 1 / SEQ ID NO: 13) (Bacillus sp. PS3, UniProt P07678); assay: Fluorescence response to ATP; assay type: biochemical
T3 construct: QD to VL at junction, L1-VLVG, L2-ICV; E. coli BL21(DE3)pLysS, Ni-NTA; HaloTag-JFX650 fusion possible
Experimental: (grey) and 37° C. (black). Error bars are s.d. of three technical replicates. Fluorescence was measured in a Cytation 5 plate reader, which has relatively rapid heating.

[4] = tested on: iATPSnFR2.HaloTag-JFX650, three variants S29W.A95K, A95K and A95A.A119L; assay: Stopped-flow kinetics of ATP binding; assay type: biochemical, Bacillus subtilis PS3; conditions: ATP 123-10000 μM
Experimental: Panels are the sensor with a C-terminal fusion to HaloTag-JFX650. […] Fluorescence data collected on an Applied Photophysics SX-20 stopped-flow apparatus with 490 nm LED excitation and 525 nm long pass filter. Data points are average of 5 technical replicates.
Final concentration of protein was thus 0.1 μM.

HaloTag-JF635 = assay: Titration of HaloTag-JF635 with ATP; assay type: biochemical; conditions: FIG. 8B
MaLion = conditions: cited from earlier work
ChemoG-ATPSiR = conditions: read-out: affinity for ATP; cited from earlier work

T3 sequence (P07678 whole entry, stated change not applied, the tested form may be a part): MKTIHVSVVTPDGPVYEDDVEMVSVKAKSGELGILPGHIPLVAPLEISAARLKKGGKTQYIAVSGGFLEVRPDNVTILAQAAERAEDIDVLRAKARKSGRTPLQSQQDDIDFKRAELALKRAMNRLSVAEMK
T2 sequence (P07678 other isoform, or with tags, fused parts or gaps S29W/V42K/F67N/N74K/L78Y): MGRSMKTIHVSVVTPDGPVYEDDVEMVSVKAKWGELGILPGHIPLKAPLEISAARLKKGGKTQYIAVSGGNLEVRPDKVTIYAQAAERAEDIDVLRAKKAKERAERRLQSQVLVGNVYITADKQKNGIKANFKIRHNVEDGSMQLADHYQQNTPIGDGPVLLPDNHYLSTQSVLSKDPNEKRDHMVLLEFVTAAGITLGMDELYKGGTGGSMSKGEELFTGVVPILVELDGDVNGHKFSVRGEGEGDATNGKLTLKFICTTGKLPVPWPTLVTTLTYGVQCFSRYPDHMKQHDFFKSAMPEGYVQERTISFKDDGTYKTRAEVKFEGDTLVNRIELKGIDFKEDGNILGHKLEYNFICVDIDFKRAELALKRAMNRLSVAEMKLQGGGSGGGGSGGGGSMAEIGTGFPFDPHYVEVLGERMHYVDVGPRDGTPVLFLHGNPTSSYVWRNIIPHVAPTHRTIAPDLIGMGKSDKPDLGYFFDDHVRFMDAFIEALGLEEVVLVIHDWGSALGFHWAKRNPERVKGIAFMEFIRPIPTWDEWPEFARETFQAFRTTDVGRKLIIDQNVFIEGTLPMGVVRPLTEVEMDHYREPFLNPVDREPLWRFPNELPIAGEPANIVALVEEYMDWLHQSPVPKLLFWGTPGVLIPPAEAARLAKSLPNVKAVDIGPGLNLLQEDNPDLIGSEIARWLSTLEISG
T1 sequence (P07678 other isoform, or with tags, fused parts or gaps V42K/F67N/N74K/L78Y): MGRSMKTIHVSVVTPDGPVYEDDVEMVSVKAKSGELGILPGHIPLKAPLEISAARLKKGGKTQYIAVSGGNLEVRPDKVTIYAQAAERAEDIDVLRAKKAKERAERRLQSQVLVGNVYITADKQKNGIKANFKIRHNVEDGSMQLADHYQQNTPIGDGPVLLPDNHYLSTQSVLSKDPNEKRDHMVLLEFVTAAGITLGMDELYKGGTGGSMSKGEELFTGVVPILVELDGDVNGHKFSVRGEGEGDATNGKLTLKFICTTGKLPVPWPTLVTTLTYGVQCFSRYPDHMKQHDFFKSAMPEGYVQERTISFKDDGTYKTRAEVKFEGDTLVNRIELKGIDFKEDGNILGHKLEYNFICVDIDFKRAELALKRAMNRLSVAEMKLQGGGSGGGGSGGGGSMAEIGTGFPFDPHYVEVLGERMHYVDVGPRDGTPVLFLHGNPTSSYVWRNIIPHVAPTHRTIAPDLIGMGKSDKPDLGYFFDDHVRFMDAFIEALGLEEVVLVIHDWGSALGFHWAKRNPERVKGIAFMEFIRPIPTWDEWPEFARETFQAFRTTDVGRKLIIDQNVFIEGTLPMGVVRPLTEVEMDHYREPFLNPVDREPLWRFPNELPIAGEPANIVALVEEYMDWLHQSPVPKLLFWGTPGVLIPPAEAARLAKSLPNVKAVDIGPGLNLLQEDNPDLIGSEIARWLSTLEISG

SMILES: Nc1ncnc2c1ncn2[C@@H]1O[C@H](COP(=O)(O)OP(=O)(O)OP(=O)(O)O)[C@@H](O)[C@H]1O [ATP]
- rate of ATP binding compared with A95A.A119L [1]: bind ATP faster than the A95A.A119L variant
- rate of ATP binding compared with A95A.A119L [2]: bind ATP faster than the A95A.A119L variant
- ΔF/F in response to saturating ATP [3]: ~12
- time to bind ATP [4]: within a one or two seconds
- sensitivity to ATP (HaloTag-JF635): sensitive to ATP, albeit with low ΔF/F
- increase in fluorescence upon saturation with ATP (MaLion): ~5 fold
- Kd (ChemoG-ATPSiR): ~2 mM
